Experiments:
[1] = test system: SARS-CoV-2-induced IL-1β P17 release in Calu-3 cells; format: cell-based
[2] = test system: secretion of the matured form of IL-1β (P17) in SFTSV-infected THP-1 macrophages; assay: cells; format: cell-based; conditions: for inhibition at 10 µM: Homo sapiens, THP-1, 48 h, read-out: inhibition rate of IL-1β (P17) secretion
SARS-CoV-2-trVLPs = format: cell-based, SARS-CoV-2 (Wuhan-Hu-1 strain); conditions: ratio of CC50 to antiviral EC50, Caco-2-N cells
[3] = target: PDE4 (catalytic domain of human PDE4D) (Homo sapiens, UniProt Q08499); assay: PDE4 inhibition assay; format: biochemical
[4] = target: SARS-CoV-2 polymerase complex (RdRp; nsp12, nsp7-nsp8) (Severe acute respiratory syndrome coronavirus 2, UniProt P0DTD1); assay: biochemical; conditions: RdRp inhibition IC50, in vitro polymerase activity assay

Chain of PDE4 (catalytic domain of human PDE4D) (Q08499 388-715): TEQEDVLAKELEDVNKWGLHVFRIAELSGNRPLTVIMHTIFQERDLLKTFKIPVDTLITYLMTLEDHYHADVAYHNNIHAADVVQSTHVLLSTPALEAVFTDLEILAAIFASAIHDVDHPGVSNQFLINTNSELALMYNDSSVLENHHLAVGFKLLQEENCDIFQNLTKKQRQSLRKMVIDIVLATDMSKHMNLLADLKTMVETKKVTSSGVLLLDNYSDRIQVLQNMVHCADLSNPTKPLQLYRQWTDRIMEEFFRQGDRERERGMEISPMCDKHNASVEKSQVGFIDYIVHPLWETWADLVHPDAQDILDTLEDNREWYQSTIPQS

Row | Compound | reduction of SARS-CoV-2-induced IL-1β P17 release, dose dependence [1] | anti-inflammation activity (inhibition of P17 secretion), dose dependence [2] | inhibition at 10 µM [2] [%] | selectivity index (SI = CC50/EC50) (SARS-CoV-2-trVLPs) | IC50 [3] [µM] | IC50 [4] [µM]
1 | COc1cc(O)ccc1/C=C/C(=O)c1ccc(O)cc1 [Echinatin] | dose-dependent effects | dose-dependent manner | > 90 | > 5.0 | – | –
2 | Cc1cc(O)c2c(c1)C(=O)c1cc(O)cc(O)c1C2=O [Emodin] | – | – | – | > 5.0 | – | –
3 | CC(C)=CCc1cc(-c2coc3cc(O)cc(O)c3c2=O)cc(O)c1O [Glycyrrhisoflavone] | dose-dependent effects | dose-dependent manner | > 90 | > 5.0 | 1.29 | 28.9
4 | C=CCc1ccc(O)c(-c2cc(CC=C)ccc2O)c1 [Magnolol] | – | – | – | > 5.0 | – | –
5 | O=c1c(O)c(-c2ccc(O)c(O)c2)oc2cc(O)cc(O)c12 [Quercetin] | – | – | – | > 5.0 | 17.4 | –
